Source: patent publication US20040142882A1, “Use of glycyrrhizin and its derivatives as RANTES inducers” (priority 2002, published 2004)

Key:
HIV [1] = details: reported in recent years; cited from earlier work
IL-12Rβ2 mRNA = assay: Th1 cell induction: IL-12Rβ2 mRNA expression by RT-PCR in peripheral mononuclear cells; format: cell-based, human; details: 7 days, FIG. 5
Protocol: Peripheral blood was collected from healthy subjects and peripheral mononuclear cells were isolated with Ficoll-Hypaque. 1×10^6 cells/ml of peripheral mononuclear cells were cultured for 7 days in medium containing IL-2 (10 U/ml) and anti-IFN-γ monoclonal antibody (10 μg/ml) in the presence of 100 μg/ml of glycyrrhizin, or glycyrrhizin and anti-RANTES monoclonal antibody (10 μg/ml). After culturing, RNA was extracted from the cells, and the expression of IL-12Rβ2 mRNA, a marker for Th1 cells, was measured by RT-PCR. […] In other words, IFN-γ is not involved in the reaction used in this experiment. Furthermore, the control in the drawing indicates the degree of expression of IL-12Rβ2 mRNA in mononuclear cells when cultured without the addition of glycyrrhizin.

HIV [2] = details: 150 to 225 mg (6 to 9 tablets) per day, asymptomatic carriers (AC); cited from earlier work
[3] = system: methicillin-resistant Staphylococcus aureus (MRSA); assay: MRSA infection in SCIDbgMN mice inoculated with spleen mononuclear cells of IFN-γ knockout mice, survival; format: in vivo; details: 10 days
Protocol: Spleen mononuclear cells originated from IFN-γ knockout mice (5×10^6 cells/ml) were inoculated into SCIDbgMN mice (SCID-beige mice deficient in macrophage and neutrophil functions). A 20 mg/kg dose of glycyrrhizin was administered intraperitoneally immediately after inoculation. 2 hours later, the animals were infected through the tail vein with methicillin-resistant Staphylococcus aureus (MRSA) at a level of 5 LD50. Furthermore, a control group was infected with an equal amount of MRSA following administration of physiological saline.
Spleen mononuclear cells originated from IFN-γ knockout mice (5×10^6 cells/ml) were inoculated into SCIDbgMN mice. A 20 mg/kg dose of glycyrrhizin was administered intraperitoneally immediately after inoculation. 2 hours later, the animals were infected through the tail vein with methicillin-resistant Staphylococcus aureus (MRSA) at a level of 5 LD50. 10 μg/ml of anti-RANTES monoclonal antibody was administered subcutaneously 2 hours before, 12 hours after and 24 hours after administration of glycyrrhizin, while an equal amount of Ig was administered subcutaneously to a control group.

[4] = system: peripheral mononuclear cells from AIDS patients; assay: RANTES induction in peripheral mononuclear cells from AIDS patients; format: cell-based, human; details: 100 μg/ml, 24 hours, cells from 3 AIDS patients, FIG. 4
Protocol: Peripheral blood was collected from 3 AIDS patients (CD4 count: 215-418 cells/μl, viral load: 80,000-370,000 copies/ml) and peripheral mononuclear cells were isolated with Ficoll-Hypaque. 1×10^6 cells/ml of peripheral mononuclear cells were stimulated for 24 hours with 100 μg/ml of glycyrrhizin. The amount of RANTES present in the culture supernatant was measured with the Human RANTES/CCL5 Quantikine Immunoassay Kit (R&D Systems). Furthermore, the control in the drawing indicates the amount of RANTES in culture supernatant of peripheral mononuclear cells not treated with glycyrrhizin.

[5] = system: mononuclear cells originated from mouse spleen; assay: RANTES induction in mononuclear cells originated from mouse spleen; format: cell-based
Description: The above results were able to be confirmed not only in humans, but also in experiments using mononuclear cells originated from mouse spleen.

[6] = system: peripheral mononuclear cells; assay: RANTES induction in peripheral mononuclear cells from healthy individuals (Quantikine immunoassay of culture supernatant); format: cell-based, human
Protocol: Peripheral blood was collected from healthy individuals and peripheral mononuclear cells were isolated with Ficoll-Hypaque. RPMI1640 medium containing 10% FCS and antibiotics (penicillin and streptomycin) was used for culturing. After stimulating 1×10^6 cells/ml of peripheral mononuclear cells with 100 μg/ml of sodium olean-3β-hydroxy-11-oxo-12-ene-30-ate, disodium olean-9(11),12-diene-3β,30-diol-3β,30-O-dihemiphthalate, disodium olean-11,13 (18)-diene-3β,30-diol-3β,30-O-dihemiphthalate, disodium olean-3β-hydroxy-11,13(18)-diene-30-ate-3β-O-hemiphthalate, disodium olean-3β-hydroxy-11-oxo-12-ene-30-ate-3β-O-hemiphthalate, or monoammonium glycyrrhizinate for 24 hours, the amount of RANTES in the culture supernatant was measured with a Human RANTES/CCL5 Quantikine Immunoassay Kit (R&D Systems). Furthermore, the control in the drawing indicates the amount of RANTES in culture supernatant when peripheral mononuclear cells were treated with medium only.
Peripheral blood was collected from healthy subjects and peripheral mononuclear cells were isolated with Ficoll-Hypaque. 1×10^6 cells/ml of peripheral mononuclear cells were stimulated with 100 μg/ml of monoammonium glycyrrhizinate (monoammonium glycyrrhizinate will hereinafter be referred to as glycyrrhizin). Taking the time at which glycyrrhizin was added to be 0 hours, the amount of RANTES present in the culture supernatant was measured with the Human RANTES/CCL5 Quantikine Immunoassay Kit (R&D Systems) 12, 24, 48 and 72 hours later. Furthermore, the control in the drawing indicates the amount of RANTES in culture supernatant of peripheral mononuclear cells not treated with glycyrrhizin.
Peripheral blood was collected from healthy subjects and peripheral mononuclear cells were isolated with Ficoll-Hypaque. 1×10^6 cells/ml of peripheral mononuclear cells were stimulated for 24 hours with 0.1-100 μg/ml of glycyrrhizin. The amount of RANTES present in the culture supernatant was measured with the Human RANTES/CCL5 Quantikine Immunoassay Kit (R&D Systems).

[7] = system: septicemia induced by cecal ligation and puncture (CLP); assay: Septicemia model (cecal ligation and puncture) in IFN-γ knockout mice, survival; format: in vivo; details: 7 days
Protocol: Glycyrrhizin was administered intraperitoneally to IFN-γ knockout mice at 20 mg/kg, and septicemia was induced by cecal ligation and puncture (CLP) 2 hours later.
Glycyrrhizin was administered intraperitoneally to IFN-γ knockout mice at 20 mg/kg, and septicemia was induced by CLP 2 hours later. 10 μg/ml of anti-RANTES monoclonal antibody were administered subcutaneously 2 hours before, 12 hours after and 24 hours after administration of glycyrrhizin, while an equal amount of Ig was administered subcutaneously to a control group.

Row | SMILES | intracellular growth of HIV (HIV [1]) | expression of IL-12Rβ2 mRNA (Th1 marker) with anti-RANTES monoclonal antibody (IL-12Rβ2 mRNA; 100 μg/ml glycyrrhizin plus anti-RANTES monoclonal antibody 10 μg/ml) | expression of IL-12Rβ2 mRNA (Th1 marker) (IL-12Rβ2 mRNA; 100 μg/ml, with IL-2 and anti-IFN-γ monoclonal antibody) | survival without the onset of AIDS (HIV [2]) | mortality rate after MRSA infection with anti-RANTES monoclonal antibody ([3]; 20 mg/kg i.p. plus anti-RANTES monoclonal antibody subcutaneously, FIG. 9) | survival rate after MRSA infection ([3]; 20 mg/kg intraperitoneally 2 hours before MRSA 5 LD50 via tail vein, FIG. 8) | RANTES induction [4] | RANTES induction confirmed in mouse cells [5] | amount of RANTES in the culture supernatant ([6]; 100 μg/ml compound, 24 hours, 1×10^6 cells/ml, FIG. 1) | production of RANTES over time ([6]; 100 μg/ml, 12, 24, 48 and 72 hours, FIG. 2) | RANTES induction versus concentration ([6]; 0.1-100 μg/ml tested, 24 hours, dose dependent within 1-100 μg/ml, FIG. 3) | mortality rate after septicemic infection with anti-RANTES monoclonal antibody ([7]; 20 mg/kg i.p. plus anti-RANTES monoclonal antibody subcutaneously, FIG. 7) | survival rate after septicemic infection ([7]; 20 mg/kg intraperitoneally 2 hours before CLP, FIG. 6) | amount of RANTES induced compared with monoammonium glycyrrhizinate ([6]; 100 μg/ml compound, 24 hours, FIG. 1)
1 | CC1(C)[C@@H](O[C@H]2O[C@H](C(=O)O)[C@@H](O)[C@H](O)[C@H]2O[C@@H]2O[C@H](C(=O)O)[C@@H](O)[C@H](O)[C@H]2O)CC[C@]2(C)[C@H]3C(=O)C=C4[C@@H]5C[C@@](C)(C(=O)O)CC[C@]5(C)CC[C@@]4(C)[C@]3(C)CC[C@@H]12.N [GR, monoammonium glycyrrhizinate] | inhibits the intracellular growth of HIV | no longer demonstrated its expression | increase in the expression of IL-12Rβ2 mRNA | ≥ 10 years | increased to the same level as the control group | 75% | RANTES was induced | confirmed | 3 ng/mL | increased with the passage of culturing time | dose dependent manner | increased to the same level as the control group | 80% | –
2 | CC1(COC(=O)c2ccccc2C(=O)[O-])CCC2(C)CCC3(C)C(=C2C1)C=CC1C2(C)CCC(OC(=O)c4ccccc4C(=O)[O-])C(C)(C)C2CCC13C.[Na+].[Na+] (stereo not drawn) [MUN-014, disodium olean-11,13(18)-diene-3β,30-diol-3β,30-O-dihemiphthalate] | – | – | – | – | – | – | – | – | – | – | – | – | – | nearly equal amount
